Assay results: ChEMBL document CHEMBL5042514, “Picolylamine-functionalized benz[e]indole squaraine dyes: Synthetic approach, characterization and in vitro efficacy as potential anticancer phototherapeutic agents” (Eur J Med Chem, 2022)
Activity calls are given as the source filed them. The calls are words filed in the database; no cut-off is given here.

What was measured:
[1] = Dark toxicity against human NHDF cells assessed as reduction in cell viability incubated for 24 hrs by MTT assay; assay type: cell-based
[2] = Phototoxicity against human NHDF cells assessed as reduction in cell viability preincubated for 24 hrs followed by 7 mins of LED light irradiation by MTT assay; assay type: toxicity, cell-based
[3] = Phototoxicity ratio of IC50 for cytotoxicity against human NHDF cells assessed as reduction in cell viability in dark to IC50 for phototoxicity against human NHDF cells upon LED light irradiation; assay type: toxicity, cell-based; details: read-out: Ratio IC50
[4] = Dark toxicity against human Caco-2 cells assessed as reduction in cell viability incubated for 24 hrs by MTT assay; assay type: cell-based
[5] = Phototoxicity against human Caco-2 cells assessed as reduction in cell viability preincubated for 24 hrs followed by 7 mins of LED light irradiation by MTT assay; assay type: toxicity, cell-based; details: Caco-2, light or radiation study
[6] = Phototoxicity ratio of IC50 for cytotoxicity against human Caco-2 cells assessed as reduction in cell viability in dark to IC50 for phototoxicity against human Caco-2 cells upon LED light irradiation; assay type: toxicity, cell-based
[7] = Selectivity ratio of IC50 for phototoxicity against human NHDF cells upon LED light irradiation to IC50 for phototoxicity against human Caco-2 cells upon LED light irradiation; assay type: toxicity, cell-based; details: NHDF cells versus Caco-2 cells, read-out: Ratio IC50
[8] = Dark toxicity against human HeLa cells assessed as reduction in cell viability incubated for 24 hrs by MTT assay; assay type: cell-based
[9] = Phototoxicity against human HeLa cells assessed as reduction in cell viability preincubated for 24 hrs followed by 7 mins of LED light irradiation by MTT assay; assay type: toxicity, cell-based; details: light or radiation study
[10] = Phototoxicity ratio of IC50 for cytotoxicity against human HeLa cells assessed as reduction in cell viability in dark to IC50 for phototoxicity against human HeLa cells upon LED light irradiation; assay type: toxicity, cell-based
[11] = Selectivity ratio of IC50 for phototoxicity against human NHDF cells upon LED light irradiation to IC50 for phototoxicity against human HeLa cells upon LED light irradiation; assay type: toxicity, cell-based; details: NHDF cells versus HeLa cells, read-out: Ratio IC50
[12] = Dark toxicity against human MCF7 cells assessed as reduction in cell viability incubated for 24 hrs by MTT assay; assay type: cell-based
[13] = Phototoxicity against human MCF7 cells assessed as reduction in cell viability preincubated for 24 hrs followed by 7 mins of LED light irradiation by MTT assay; assay type: toxicity, cell-based; details: MCF7, light or radiation study
[14] = Phototoxicity ratio of IC50 for cytotoxicity against human MCF7 cells assessed as reduction in cell viability in dark to IC50 for phototoxicity against human MCF7 cells upon LED light irradiation; assay type: toxicity, cell-based
[15] = Selectivity ratio of IC50 for phototoxicity against human NHDF cells upon LED light irradiation to IC50 for phototoxicity against human MCF7 cells upon LED light irradiation; assay type: toxicity, cell-based; details: NHDF cells versus MCF7 cells, read-out: Ratio IC50
[16] = Dark toxicity against human PC-3 cells assessed as reduction in cell viability incubated for 24 hrs by MTT assay; assay type: cell-based
[17] = Phototoxicity against human PC-3 cells assessed as reduction in cell viability preincubated for 24 hrs followed by 7 mins of LED light irradiation by MTT assay; assay type: toxicity, cell-based; details: PC-3, light or radiation study
[18] = Phototoxicity ratio of IC50 for cytotoxicity against human PC-3 cells assessed as reduction in cell viability in dark to IC50 for phototoxicity against human PC-3 cells upon LED light irradiation; assay type: toxicity, cell-based
Albumin = Albumin (Homo sapiens, UniProt P02768); assay: Binding affinity to human serum albumin assessed as binding constant by fluorescence based assay
HeLa [19] = assay: Induction of cell cycle arrest in human HeLa cells assessed as accumulation of hypodiploid cells in sub-G1 phase at 0.25 to 1 uM measured after 24 hrs in the absence of light by PI staining based flow cytometry analysis; assay type: functional; details: dose 0.25-1 µM
[20] = Selectivity ratio of IC50 for phototoxicity against human NHDF cells upon LED light irradiation to IC50 for phototoxicity against human PC-3 cells upon LED light irradiation; assay type: toxicity, cell-based; details: NHDF cells versus PC-3 cells, read-out: Ratio IC50
HeLa [21] = assay: Induction of morphological change in human HeLa cells assessed as rounded cell morphology at 0.25 uM preincubated for 24 hrs followed by 7 mins of LED light irradiation and measured upto 48 hrs by microscopic analysis; assay type: functional, cell-based; details: time min <=4327
HeLa [22] = assay: Induction of morphological change in human HeLa cells assessed as cell shrinkage at 0.25 uM preincubated for 24 hrs followed by 7 mins of LED light irradiation and measured upto 48 hrs by microscopic analysis; assay type: functional, cell-based; details: time min <=4327
HeLa [23] = assay: Induction of morphological change in human HeLa cells assessed as plasma membrane rupture at 1 uM preincubated for 24 hrs followed by 7 mins of LED light irradiation and measured upto 48 hrs by microscopic analysis; assay type: functional; details: time min <=4327
HeLa [24] = assay: Induction of morphological change in human HeLa cells assessed as intracellular space dilation at 1 uM preincubated for 24 hrs followed by 7 mins of LED light irradiation and measured upto 48 hrs by microscopic analysis; assay type: functional, cell-based; details: time min <=4327
[25] = Drug localization in mitochondria of human HeLa cells at 1 uM incubated for 24 hrs by Rhodamine 123 based confocal laser scanning microscopy analysis; assay type: ADME
HeLa [26] = assay: Induction of cell cycle arrest in human HeLa cells assessed as accumulation in G0/G1 phase at 0.25 uM by PI staining based flow cytometry analysis (reference value: 67.03 %); assay type: functional
HeLa [27] = assay: Induction of cell cycle arrest in human HeLa cells assessed as accumulation in S phase at 0.25 uM by PI staining based flow cytometry analysis (reference value: 32.14 %); assay type: functional
HeLa [28] = assay: Induction of cell cycle arrest in human HeLa cells assessed as accumulation in G2/M phase at 0.25 uM by PI staining based flow cytometry analysis (reference value: 4.79 %); assay type: functional
HeLa [29] = assay: Induction of cell cycle arrest in human HeLa cells assessed as accumulation in G0/G1 phase at 1 uM by PI staining based flow cytometry analysis (reference value: 67.03 %); assay type: functional
HeLa [30] = assay: Induction of cell cycle arrest in human HeLa cells assessed as accumulation in S phase at 1 uM by PI staining based flow cytometry analysis (reference value: 32.14 %); assay type: functional
HeLa [31] = assay: Induction of cell cycle arrest in human HeLa cells assessed as accumulation in G2/M phase at 1 uM by PI staining based flow cytometry analysis (reference value: 4.79 %); assay type: functional
HeLa [32] = assay: Induction of cell cycle arrest in human HeLa cells assessed as accumulation in G0/G1 phase at 0.25 uM with red light radiation for 7 mins by PI staining based flow cytometry analysis (reference value: 63.18%); assay type: functional
HeLa [33] = assay: Induction of cell cycle arrest in human HeLa cells assessed as accumulation in S phase at 0.25 uM with red light radiation for 7 mins by PI staining based flow cytometry analysis (reference value: 32.09 %); assay type: functional
HeLa [34] = assay: Induction of cell cycle arrest in human HeLa cells assessed as accumulation in G2/M phase at 0.25 uM with red light radiation for 7 mins by PI staining based flow cytometry analysis (reference value: 4.73 %); assay type: functional
HeLa [35] = assay: Induction of morphological change in human HeLa cells assessed as reduction in adhesion at 0.25 uM preincubated for 24 hrs followed by 7 mins of LED light irradiation and measured upto 48 hrs by microscopic analysis; assay type: functional, cell-based; details: time min <=4327
HeLa [36] = assay: Induction of apoptosis in human HeLa cells at 0.25 uM preincubated for 24 hrs followed by 7 mins LED light irradiation and measured after 24 hrs by PI staining based flow cytometry analysis; assay type: functional; details: time 2887 min, 48.12 h
[37] = Drug localization in lysosome of human HeLa cells at 1 uM incubated for 24 hrs by Green Fluorescent Protein based confocal laser scanning microscopy analysis; assay type: ADME, subcellular
HeLa [38] = assay: Induction of apoptosis in human HeLa cells assessed as increase in DNA cleavage at 1 uM preincubated for 24 hrs followed by 7 mins LED light irradiation and measured after 24 hrs by PI staining based flow cytometry analysis; assay type: functional; details: time 2887 min, 48.12 h
HeLa [39] = assay: Induction of cell cycle arrest in human HeLa cells assessed as accumulation of hypodiploid cells in sub-G1 phase at 0.24 to 1 uM measured after 24 hrs in the absence of light by PI staining based flow cytometry analysis; assay type: functional; details: dose 0.24-1 µM

Chain of Albumin (P02768 whole entry): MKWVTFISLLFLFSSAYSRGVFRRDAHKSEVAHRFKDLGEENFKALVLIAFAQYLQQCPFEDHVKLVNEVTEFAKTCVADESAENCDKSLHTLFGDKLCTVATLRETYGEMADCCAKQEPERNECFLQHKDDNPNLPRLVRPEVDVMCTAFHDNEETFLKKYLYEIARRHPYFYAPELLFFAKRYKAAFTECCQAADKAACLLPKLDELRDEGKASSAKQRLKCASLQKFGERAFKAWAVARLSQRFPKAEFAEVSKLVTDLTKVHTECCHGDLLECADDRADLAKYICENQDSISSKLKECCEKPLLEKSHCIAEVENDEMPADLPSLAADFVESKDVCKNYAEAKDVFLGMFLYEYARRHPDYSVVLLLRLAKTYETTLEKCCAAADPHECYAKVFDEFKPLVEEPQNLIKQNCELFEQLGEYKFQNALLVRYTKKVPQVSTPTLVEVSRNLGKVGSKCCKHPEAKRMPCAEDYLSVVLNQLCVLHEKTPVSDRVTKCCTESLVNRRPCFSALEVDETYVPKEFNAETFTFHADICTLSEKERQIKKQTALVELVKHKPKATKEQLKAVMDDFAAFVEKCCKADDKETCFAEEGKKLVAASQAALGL

| Kb (Albumin) | SMILES | IC50 at 24 h [1] [nM] | IC50 at 24 h [2] [nM] | selectivity ratio [3] | IC50 at 24 h [4] [nM] | IC50 [5] [nM] | Ratio IC50 [6] | selectivity ratio [7] | IC50 at 24 h [8] [nM] | IC50 [9] [nM] | Ratio IC50 [10] | selectivity ratio [11] | IC50 at 24 h [12] [nM] | IC50 [13] [nM] | Ratio IC50 [14] | selectivity ratio [15] | IC50 at 24 h [16] [nM] | IC50 [17] [nM] | Ratio IC50 [18] | selectivity ratio [20] | further results |
| --- | --- | --- | --- | --- | --- | --- | --- | --- | --- | --- | --- | --- | --- | --- | --- | --- | --- | --- | --- | --- | --- |
| 5.92 10^5/M | CCN1/C(=C/C2=C(N(Cc3ccccn3)Cc3ccccn3)C(=C/C3=[N+](CC)c4ccc5ccccc5c4C3(C)C)/C2=O)C(C)(C)c2c1ccc1ccccc21.[I-] | 484 | 184 | 2.6 | 328 | 92 | 3.6 | 2 | 449 | 113 | 4 | 1.63 | 534 | 150 | 3.6 | 1.23 | 393 | 148 | 2.7 |  |  |
| 2.01 10^5/M | CCN1/C(=C/C2=C([O-])C(=C/C3=[N+](CC)c4ccc5ccccc5c4C3(C)C)/C2=O)C(C)(C)c2c1ccc1ccccc21 | > 10000 | 222 | > 45 | > 10000 | 332 | > 30.1 | 0.67 | > 10000 | 245 | > 40.8 | 0.91 | > 10000 | 232 | > 43.1 | 0.96 | > 10000 | 190 | > 52.6 | 1.17 | Activity (HeLa [19]): 1%; Activity (HeLa [21]): Active; Activity (HeLa [22]): Active; Activity (HeLa [23]): Active; Activity (HeLa [24]): Active; Drug uptake [25]: Active; Activity (HeLa [26]): 68.96%; Activity (HeLa [27]): 25.84%; Activity (HeLa [28]): 5.19%; Activity (HeLa [29]): 70.47%; Activity (HeLa [30]): 25.92%; Activity (HeLa [31]): 3.61%; Activity (HeLa [32]): 58.79%; Activity (HeLa [33]): 31.5%; Activity (HeLa [34]): 9.71%; Activity (HeLa [35]): Active; Activity (HeLa [36]): 17%; Drug uptake [37]: Not Active; Activity (HeLa [38]): 98% |
| 1.64 10^5/M | CCCCCCN1/C(=C/C2=C(NCc3ccccn3)C(=C/C3=[N+](CCCCCC)c4ccc5ccccc5c4C3(C)C)/C2=O)C(C)(C)c2c1ccc1ccccc21.[I-] | 4300 | 1280 | 3.4 | > 10000 | 4820 | > 2.1 | 0.26 | 4780 | 2580 | 1.9 | 0.49 | 3100 | 2290 | 1.4 | 0.56 | 6690 | 1530 | 1.3 | 0.84 | Activity (HeLa [39]): 1% |
| 7.68 10^5/M | CCCCCCN1/C(=C/C2=C(N(Cc3ccccn3)Cc3ccccn3)C(=C/C3=[N+](CCCCCC)c4ccc5ccccc5c4C3(C)C)/C2=O)C(C)(C)c2c1ccc1ccccc21.[I-] | 1010 | 695 | 1.4 | 2490 | 2130 | 1.2 | 0.33 | 1740 | 1170 | 1.5 | 0.59 | 1520 | 1190 | 1.3 | 0.59 | 1110 | 967 | 1.1 | 0.72 |  |
